Results as given in US20130317055A1, “NEURONAL NICOTINIC AGONIST AND METHODS OF USE” (ABBVIE INC., priority 2012, published 2013).

What was measured:
Assay type in all cases: in vivo, human
[1] = tested on: clinically stable subjects with schizophrenia; assay: Clinical Study A: CANTAB cognition battery; conditions: 10 mg and 25 mg
Source text: A Phase 2a proof-of-concept (POC) study in clinically stable subjects with schizophrenia who were clinically stable and received stable doses of atypical antipsychotic therapy. The study was a Phase 2, multi-center, randomized, double-blind, placebo-controlled, parallel group study designed to evaluate the safety and efficacy of doses of (4s)-4-(5-phenyl-1,3,4-thiadiazol-2-yloxy)-1-azatricyclo[3.3.1.1^3,7]decane (Compound A) in clinically stable male and female subjects (ages 20 to 55, inclusive) with a Diagnostic and Statistical Manual of Mental Disorders Fourth Edition, Text Revision (DSM-IV-TR) diagnosis of schizophrenia. […] The criteria for clinical stability was determined by a combination of retrospective data (over the 4 months prior to the start of Screening, which will be supported by clinical records, patient, identified responsible contact person, and physician interviews), and prospective data assessed during the Prospective Stabilization Period of 28 to 42 days duration. […]
The primary endpoint was the MCCB composite score, and the primary endpoint analysis was the change on the MCCB composite score from baseline to endpoint versus placebo. Other secondary measures included the MCCB domains, the NSA-16, the CANTAB cognition battery (measured at different time points from the MCCB), and the UPSA-2. […]

[2] = tested on: clinically stable subjects with schizophrenia; assay: Clinical Study A (Phase 2a, placebo-controlled): MATRICS Consensus Cognitive Battery (MCCB); conditions: Phase 2a study; printed indication AD
[3] = tested on: clinically stable subjects with schizophrenia; assay: Clinical Study A: disposition of subjects, discontinuations and tolerability
Source text: (§1) A Phase 2a proof-of-concept (POC) study in clinically stable subjects with schizophrenia who were clinically stable and received stable doses of atypical antipsychotic therapy. The study was a Phase 2, multi-center, randomized, double-blind, placebo-controlled, parallel group study designed to evaluate the safety and efficacy of doses of (4s)-4-(5-phenyl-1,3,4-thiadiazol-2-yloxy)-1-azatricyclo[3.3.1.1^3,7]decane (Compound A) in clinically stable male and female subjects (ages 20 to 55, inclusive) with a Diagnostic and Statistical Manual of Mental Disorders Fourth Edition, Text Revision (DSM-IV-TR) diagnosis of schizophrenia. Psychiatric diagnoses were confirmed using the Mini-International Neuropsychiatric Interview (MINI) version 6.0.0. The criteria for clinical stability was determined by a combination of retrospective data (over the 4 months prior to the start of Screening, which will be supported by clinical records, patient, identified responsible contact person, and physician interviews), and prospective data assessed during the Prospective Stabilization Period of 28 to 42 days duration.
(§2) The study was a Phase 2, multi-center, randomized, double-blind, placebo-controlled, parallel group study designed to evaluate the safety and efficacy of doses of (4s)-4-(5-phenyl-1,3,4-thiadiazol-2-yloxy)-1-azatrieyclo[3.3.1.1^3,7]decane, which is also recognized as Compound A, in treating cognitive deficits in subjects with schizophrenia who were clinically stable and receiving one or two atypical antipsychotic medications. Study drug was administered orally.
(§3) The study consisted of a screening period of at least 28 and up to 42 days, a 84-day outpatient treatment period, a 14-day post-treatment period, and a post-treatment follow-up period. The screening period consisted of three visits: Screening Visit 1, Screening Visit 2, and Day −1. Upon completion of Day −1 procedures, eligible subjects were randomized through an Interactive Voice Response/Interactive Web-Based (IVR/IWB) system. Subjects were randomized in an equal ratio to one of three treatment groups (placebo, 10 mg Compound A, or 25 mg Compound A).
(§4) Subjects were randomized in a 1:1:1 ratio with placebo, 10 mg QD Compound A, of 25 mg Compound A. Each subject was instructed to take study drug once-daily in the morning for 12 weeks. Each daily dose was preferably taken with food. The subject and investigator were blinded to the treatment assignment throughout the study. The treatment assignments for the study subjects are shown below in Table 1.
Subjects completed 2 visits during the screening period. Study site personnel contacted each subject by telephone on Day 21, 35, and 70 of the 84-day treatment period to discuss study drug compliance, antipsychotic medication compliance, concomitant medication use, substance use, and any adverse events.
A total of 207 subjects were randomized.

[4] = tested on: clinically stable subjects with schizophrenia; assay: Clinical Study A: UCSD Performance-Based Skills Assessment-2 (UPSA-2); conditions: for UPSA-2 Total Score: Difference from Placebo LS Mean (SE) of Difference / UPSA-2 Total Score: LS Mean (SE) of Change: Baseline to Final Evaluation, ANCOVA; for UPSA-2 Total Score: Observed Mean (SD) Final: Final Evaluation
Source text: as §1, §2, §3, §4
The primary endpoint was the MCCB composite score, and the primary endpoint analysis was the change on the MCCB composite score from baseline to endpoint versus placebo. Other secondary measures included the MCCB domains, the NSA-16, the CANTAB cognition battery (measured at different time points from the MCCB), and the UPSA-2. The Positive and Negative Syndrome Scale (PANSS) was included to document stability in schizophrenia symptomatology.
The UCSD Performance-Based Skills Assesstnent-2 (UPSA-2) is a role-play test designed for subjects with schizophrenia to evaluate cognitive functional capacity in six selected domains of basic living skills. These areas include Organization/Planning Financial Skills, Communication, Transportation, Household Management, and Medication Management. […] Scores were obtained for each subtest, and the total score was the sum of these subtests. […] The UPSA-2 required an average of 30 minutes to administer. The UPSA-2 was administered in on Days 14, 28, 56, 84 and 98.

Structure (SMILES): c1ccc(-c2nnc(O[C@@H]3C4CC5C[C@H]3C[N@](C5)C4)s2)cc1 [Compound A, (4s)-4-(5-phenyl-1,3,4-thiadiazol-2-yloxy)-1-azatricyclo[3.3.1.1^3,7]decane]
- CANTAB battery results relative to MCCB results [1]: consistent
- Signal for efficacy in symptomatic treatment [2]: demonstrated a signal for efficacy
- Discontinuation, primary reason Adverse event, % of treated subjects ([3]; 10 mg QD): (5.8) %
- Discontinuation, primary reason Adverse event, % of treated subjects ([3]; 25 mg QD): (4.5) %
- Discontinuation, primary reason Adverse event, % of treated subjects ([3]; Compound A Overall): (5.1) %
- Tolerability ([3]; human patients with schizophrenia, summary statement): generally well tolerated
- Tolerability ([3]; subjects with schizophrenia, doses up to 25 mg QD, including 10 mg QD and 25 mg QD): well tolerated
- UPSA-2 Total Score: Difference from Placebo LS Mean (SE) of Difference ([4]; 10 mg QD): 0.51 (2.15)
- UPSA-2 Total Score: LS Mean (SE) of Change ([4]; 10 mg QD): 2.78 (1.52)
- UPSA-2 Total Score: Observed Mean (SD) Final ([4]; 10 mg QD): 87.98 (20.36)
- UPSA-2 Total Score: Difference from Placebo LS Mean (SE) of Difference ([4]; 25 mg QD): 0.63 (2.34)
- UPSA-2 Total Score: LS Mean (SE) of Change ([4]; 25 mg QD): 2.89 (1.70)
- UPSA-2 Total Score: Observed Mean (SD) Final ([4]; 25 mg QD): 94.29 (15.85)
- UPSA-2 composite score: significance versus placebo ([4]; either dose group (10 mg, 25 mg)): No significance
